Assay results published in PubChem BioAssay (NCI).
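Interpolation was linear, between the two tested concentrations surrounding the appropriate level; five concentrations were tested over 48 hours in 96-well plates. Here, GI50 denotes the concentration required for 50% inhibition of growth. At the TGI there is no net growth.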

Assays:
Test in all cases: NCI tumour cell line growth inhibition, 48 h
HT29 colon = test system: HT29 colon
IGROV1 ovarian = test system: IGROV1 ovarian
SNB-19 CNS = test system: SNB-19 CNS
NCI-H460 lung = test system: NCI-H460 lung
SF-268 CNS = test system: SF-268 CNS
HCT-15 colon = test system: HCT-15 colon
SW-620 colon = test system: SW-620 colon
MALME-3M melanoma = test system: MALME-3M melanoma
OVCAR-5 ovarian = test system: OVCAR-5 ovarian
LOX IMVI melanoma = test system: LOX IMVI melanoma
OVCAR-8 ovarian = test system: OVCAR-8 ovarian
SK-MEL-5 melanoma = test system: SK-MEL-5 melanoma
SF-295 CNS = test system: SF-295 CNS
SR leukemia = test system: SR leukemia
PC-3 prostate = test system: PC-3 prostate
SK-MEL-2 melanoma = test system: SK-MEL-2 melanoma
MOLT-4 leukemia = test system: MOLT-4 leukemia
NCI/ADR-RES ovarian = test system: NCI/ADR-RES ovarian
M14 melanoma = test system: M14 melanoma
T-47D breast = test system: T-47D breast
EKVX NSCLC = test system: EKVX NSCLC
UACC-62 melanoma = test system: UACC-62 melanoma
OVCAR-4 ovarian = test system: OVCAR-4 ovarian
BT-549 breast = test system: BT-549 breast
UO-31 renal = test system: UO-31 renal
NCI-H226 lung = test system: NCI-H226 lung
NCI-H522 lung = test system: NCI-H522 lung
UACC-257 melanoma = test system: UACC-257 melanoma
A549 NSCLC = test system: A549 NSCLC
ACHN renal = test system: ACHN renal
SK-OV-3 ovarian = test system: SK-OV-3 ovarian
HS 578T breast = test system: HS 578T breast
HOP-62 NSCLC = test system: HOP-62 NSCLC
HOP-92 NSCLC = test system: HOP-92 NSCLC
OVCAR-3 ovarian = test system: OVCAR-3 ovarian
SNB-75 CNS = test system: SNB-75 CNS
MDA-MB-231 breast = test system: MDA-MB-231 breast
SN12C renal = test system: SN12C renal
MCF7 breast = test system: MCF7 breast
COLO 205 colon = test system: COLO 205 colon
U251 CNS = test system: U251 CNS
NCI-H23 lung = test system: NCI-H23 lung
786-0 renal = test system: 786-0 renal
MDA-MB-435 = test system: MDA-MB-435
RXF 393 renal = test system: RXF 393 renal
CCRF-CEM leukemia = test system: CCRF-CEM leukemia
HCT-116 colon = test system: HCT-116 colon
A498 renal = test system: A498 renal
TK-10 renal = test system: TK-10 renal
K-562 leukemia = test system: K-562 leukemia
SF-539 CNS = test system: SF-539 CNS
HL-60(TB) leukemia = test system: HL-60(TB) leukemia
DU-145 prostate = test system: DU-145 prostate
KM12 colon = test system: KM12 colon
CAKI-1 renal = test system: CAKI-1 renal
HCC-2998 colon = test system: HCC-2998 colon
RPMI-8226 leukemia = test system: RPMI-8226 leukemia
SK-MEL-28 melanoma = test system: SK-MEL-28 melanoma

Which TGI (HT29 colon) does the source give for `O=S(=O)(O)Oc1cc2c(c(OS(=O)(=O)O)c1)C[C@H](OS(=O)(=O)O)[C@@H](c1ccc(OS(=O)(=O)O)c(OS(=O)(=O)O)c1)O2` here?
Its TGI is greater than 100 µM.

What about the TGI (IGROV1 ovarian) of the same molecule?
The TGI was greater than 100 µM.

What about the TGI (SNB-19 CNS) of the same molecule?
The TGI was greater than 100 µM.

And the TGI (NCI-H460 lung)?
The TGI was greater than 100 µM.

What about the TGI (SF-268 CNS) of the same molecule?
Its TGI is greater than 100 µM.

What about the TGI (HCT-15 colon) of the same molecule?
Its TGI is greater than 100 µM.

And the TGI (SW-620 colon)?
The TGI was greater than 100 µM.

What about the TGI (MALME-3M melanoma) of the same molecule?
The TGI was greater than 100 µM.

And the TGI (OVCAR-5 ovarian)?
Its TGI is greater than 100 µM.

And the TGI (LOX IMVI melanoma)?
The TGI was greater than 100 µM.

And the TGI (OVCAR-8 ovarian)?
Its TGI is greater than 100 µM.

And the TGI (SK-MEL-5 melanoma)?
The TGI was greater than 100 µM.

And the TGI (SF-295 CNS)?
The TGI was greater than 100 µM.

And the TGI (SR leukemia)?
The TGI was greater than 100 µM.

And the TGI (PC-3 prostate)?
The TGI was greater than 100 µM.

What about the TGI (SK-MEL-2 melanoma) of the same molecule?
The TGI was greater than 100 µM.

What about the TGI (MOLT-4 leukemia) of the same molecule?
The TGI was greater than 100 µM.

What about the TGI (NCI/ADR-RES ovarian) of the same molecule?
Its TGI is greater than 100 µM.

What about the TGI (M14 melanoma) of the same molecule?
The TGI was greater than 100 µM.

And the TGI (T-47D breast)?
Its TGI is greater than 100 µM.

And the TGI (EKVX NSCLC)?
The TGI was greater than 100 µM.

What about the TGI (UACC-62 melanoma) of the same molecule?
The TGI was greater than 100 µM.

What about the TGI (OVCAR-4 ovarian) of the same molecule?
The TGI was greater than 100 µM.

And the TGI (BT-549 breast)?
The TGI was greater than 100 µM.

What about the TGI (UO-31 renal) of the same molecule?
The TGI was greater than 100 µM.

What about the TGI (NCI-H226 lung) of the same molecule?
Its TGI is greater than 100 µM.

What about the TGI (NCI-H522 lung) of the same molecule?
Its TGI is greater than 100 µM.

And the TGI (UACC-257 melanoma)?
The TGI was greater than 100 µM.

And the TGI (A549 NSCLC)?
Its TGI is greater than 100 µM.

What about the TGI (ACHN renal) of the same molecule?
The TGI was greater than 100 µM.

And the TGI (SK-OV-3 ovarian)?
The TGI was greater than 100 µM.

What about the TGI (HS 578T breast) of the same molecule?
The TGI was greater than 100 µM.

And the TGI (HOP-62 NSCLC)?
The TGI was greater than 100 µM.

And the TGI (HOP-92 NSCLC)?
Its TGI is greater than 100 µM.

And the TGI (OVCAR-3 ovarian)?
Its TGI is greater than 100 µM.

What about the TGI (SNB-75 CNS) of the same molecule?
Its TGI is greater than 100 µM.

And the TGI (MDA-MB-231 breast)?
Its TGI is greater than 100 µM.

And the TGI (SN12C renal)?
Its TGI is greater than 100 µM.

What about the TGI (MCF7 breast) of the same molecule?
Its TGI is greater than 100 µM.

What about the TGI (COLO 205 colon) of the same molecule?
The TGI was greater than 100 µM.

What does the source list for `O=C(/C=C/C12c3ccccc3C(c3ccccc31)C1C(=O)NC(=O)C12)c1ccc(Cl)cc1` (stereo not given)?
GI50 (IGROV1 ovarian): 1.67 µM; TGI (IGROV1 ovarian): 3.4 µM; GI50 (U251 CNS): 1.52 µM; TGI (U251 CNS): 2.99 µM; GI50 (SNB-19 CNS): 1.58 µM; TGI (SNB-19 CNS): 3.04 µM; GI50 (NCI-H23 lung): 1.78 µM; TGI (NCI-H23 lung): 3.83 µM; GI50 (NCI-H460 lung): 1.8 µM; TGI (NCI-H460 lung): 4.31 µM; GI50 (SF-268 CNS): 1.99 µM; TGI (SF-268 CNS): 5.31 µM; GI50 (786-0 renal): 1.73 µM; TGI (786-0 renal): 3.16 µM; GI50 (HCT-15 colon): 1.47 µM; TGI (HCT-15 colon): 4.07 µM; GI50 (MDA-MB-435): 1.68 µM; TGI (MDA-MB-435): 3.5 µM; GI50 (SW-620 colon): 1.89 µM; TGI (SW-620 colon): 4.26 µM; GI50 (RXF 393 renal): 1.2 µM; TGI (RXF 393 renal): 2.56 µM; GI50 (CCRF-CEM leukemia): 1.66 µM; TGI (CCRF-CEM leukemia): > 100 µM; GI50 (MALME-3M melanoma): 1.51 µM; TGI (MALME-3M melanoma): 2.88 µM; GI50 (OVCAR-5 ovarian): 1.58 µM; TGI (OVCAR-5 ovarian): 3.35 µM; GI50 (LOX IMVI melanoma): 1.6 µM; TGI (LOX IMVI melanoma): 3 µM; GI50 (OVCAR-8 ovarian): 1.13 µM; TGI (OVCAR-8 ovarian): 2.66 µM; GI50 (HCT-116 colon): 1.23 µM; TGI (HCT-116 colon): 2.61 µM; GI50 (SK-MEL-5 melanoma): 1.7 µM; TGI (SK-MEL-5 melanoma): 3.08 µM; GI50 (SR leukemia): 2.15 µM; TGI (SR leukemia): > 100 µM; GI50 (PC-3 prostate): 1.39 µM; TGI (PC-3 prostate): 2.78 µM; GI50 (SK-MEL-2 melanoma): 1.81 µM; TGI (SK-MEL-2 melanoma): 3.71 µM; GI50 (MOLT-4 leukemia): 1.7 µM; TGI (MOLT-4 leukemia): 15.5 µM; GI50 (NCI/ADR-RES ovarian): 1.77 µM; TGI (NCI/ADR-RES ovarian): 4.93 µM; GI50 (M14 melanoma): 1.65 µM; TGI (M14 melanoma): 3.29 µM; GI50 (A498 renal): 1.28 µM; TGI (A498 renal): 2.6 µM; GI50 (TK-10 renal): 1.92 µM; TGI (TK-10 renal): 3.52 µM; GI50 (K-562 leukemia): 1.99 µM; TGI (K-562 leukemia): > 100 µM; GI50 (SF-539 CNS): 1.51 µM; TGI (SF-539 CNS): 2.86 µM; GI50 (EKVX NSCLC): 1.43 µM; TGI (EKVX NSCLC): 2.87 µM; GI50 (UACC-62 melanoma): 1.4 µM; TGI (UACC-62 melanoma): 2.77 µM; GI50 (OVCAR-4 ovarian): 1.42 µM; TGI (OVCAR-4 ovarian): 2.76 µM; GI50 (BT-549 breast): 1.34 µM; TGI (BT-549 breast): 2.69 µM; GI50 (UO-31 renal): 1.28 µM; TGI (UO-31 renal): 2.56 µM; GI50 (HL-60(TB) leukemia): 1.47 µM; TGI (HL-60(TB) leukemia): 8.86 µM; GI50 (NCI-H226 lung): 1.92 µM; TGI (NCI-H226 lung): 5 µM; GI50 (NCI-H522 lung): 1.46 µM; TGI (NCI-H522 lung): 3.3 µM; GI50 (UACC-257 melanoma): 1.56 µM; TGI (UACC-257 melanoma): 3.45 µM; GI50 (A549 NSCLC): 2.4 µM; TGI (A549 NSCLC): 10.1 µM; GI50 (ACHN renal): 1.65 µM; TGI (ACHN renal): 3.02 µM; GI50 (SK-OV-3 ovarian): 1.85 µM; TGI (SK-OV-3 ovarian): 3.87 µM; GI50 (DU-145 prostate): 1.67 µM; TGI (DU-145 prostate): 3.26 µM; GI50 (HS 578T breast): 1.94 µM; TGI (HS 578T breast): 7.22 µM; GI50 (HOP-62 NSCLC): 1.69 µM; TGI (HOP-62 NSCLC): 3.39 µM; GI50 (HOP-92 NSCLC): 1.32 µM; TGI (HOP-92 NSCLC): 2.86 µM; GI50 (KM12 colon): 2.14 µM; TGI (KM12 colon): 5.44 µM; GI50 (CAKI-1 renal): 1.24 µM; TGI (CAKI-1 renal): 2.52 µM; GI50 (OVCAR-3 ovarian): 1.63 µM; TGI (OVCAR-3 ovarian): 3.26 µM; GI50 (HCC-2998 colon): 1.69 µM; TGI (HCC-2998 colon): 3.37 µM; GI50 (SNB-75 CNS): 1.1 µM; TGI (SNB-75 CNS): 2.32 µM; GI50 (MDA-MB-231 breast): 1.88 µM; TGI (MDA-MB-231 breast): 4.3 µM; GI50 (RPMI-8226 leukemia): 1.66 µM; TGI (RPMI-8226 leukemia): 4.5 µM; GI50 (SN12C renal): 1.56 µM; TGI (SN12C renal): 3.26 µM; GI50 (MCF7 breast): 1.34 µM; TGI (MCF7 breast): 4.05 µM; GI50 (SK-MEL-28 melanoma): 1.8 µM; TGI (SK-MEL-28 melanoma): 3.37 µM; GI50 (COLO 205 colon): 1.91 µM; TGI (COLO 205 colon): 3.77 µM
